Patent publication US10221177B2 (HYDRA BIOSCIENCES, INC., priority 2014, dated 2019)
Where “and” joins values, the source holds several entries; their conditions need not be identical. Identical values can stand only once.

How the values were obtained:
[1] = system: formalin-induced pain behaviors in the rat; assay: Formalin-induced pain test (formalin model), duration of pain behaviors; type: in vivo
Experimental: Exemplary compounds of the invention were tested in the formalin-induced pain test reported by Dubuisson et al., Pain 1977 December; 4(2):161-74 (incorporated herein by reference in its entirety). Briefly, dilute formalin (50 μL of 3% formalin) was injected into the plantar surface of the hind paw of a rat. […] The individual responsible for counting the pain behaviors in a particular study was blinded to the treatment groups.
The initial phase (Phase I: 0-5 min) is thought to have a significant component that is dependent upon direct activation of afferent fibers by formalin and functional TRPA1 (McNamara et al., 2007).
Investigators studied oral administration of compounds of the invention at the doses presented in Table 3 on pain behaviors in the formalin model in the rat. Compounds were formulated as solutions in water with various solvents and excipients including dimethyl sulfoxide (DMSO), polyethylene glycol (15)-hydroxystearate (Solutol®, Sigma-Aldrich), caprylocaproyl macrogol-8 glyceride (Labrasol®, Sigma-Aldrich), polysorbate-80 (Tween®-80, Sigma-Aldrich), and polyoxyl 35 castor oil (Cremophor® EL, BASF Corp.); or suspensions in methylcellulose as indicated in Table 3. Animals were dosed orally with the vehicle, or compounds of the invention one hour prior to intraplantar formalin. […] A decrease over Vehicle indicates a positive result. P values, when indicated, indicate significance compared Vehicle.

[2] = system: CFA-induced cold hypersensitivity of the hind paw; assay: CFA-induced pain test, cold hypersensitivity (cold plate paw withdrawal latency); type: in vivo; details: cold plate 1° C., solution in 4% DMSO, 5% Tween-80; for Average PWL Post-Treatment / PWL Change: 1-2 hour pre-treatment; for Average PWL Post-CFA: baseline before dosing
Experimental: Embodiments of the invention may be efficacious in the treatment of inflammatory pain. Compounds of the invention were tested by the CFA-induced pain test method. Compounds were formulated as solutions in water with various solvents and excipients including dimethyl sulfoxide (DMSO), polyethylene glycol (15)-hydroxystearate (Solutol®, Sigma-Aldrich), caprylocaproyl macrogol-8 glyceride (Labrasol®, Sigma-Aldrich), polysorbate-80 (Tween®-80, Sigma-Aldrich), and polyoxyl 35 castor oil (Cremophor® EL, BASF Corp.); or suspensions in methylcellulose as indicated in Table 3 for oral delivery. Briefly, the hind paw was sensitized to cold temperature (allodynic) by administering 0.1 mL of Complete Freund's Adjuvant (CFA) to the right hind paw. Three days later, the time taken for the animal to lift its CFA-injected paw was recorded compared to its un-injected normal left hind paw. […] To avoid tissue damage the maximum cut-off time was 5 minutes. Animals that were allodynic (average PWL to the first three pain behaviors <150 seconds for the CFA-injected hind paw: ˜≥50% difference between the normal and CFA-injected paw) were included in the study and subsequently randomized across treatment groups. The following day, the animals were dosed orally under blinded conditions. Following the 1-2 hour pre-treatment time, the post-dose PWL readings were again taken. The efficacy of the drug treatment was assessed by comparing the PWL in the drug treatment animals to those animals that receive the vehicle. P values, when indicated, indicate significance compared Vehicle.

human TRPA1 = human TRPA1 (Homo sapiens (Human), UniProt O75762); assay: In vitro inhibition of human TRPA1, whole cell patch configuration; type: cell-based; details: current activation 10 μM AITC, tested concentrations 320 pM to 3.2 μM, read-out: hTRPA1 IC50
Sequence of human TRPA1 (O75762 whole entry, the tested form may be a part): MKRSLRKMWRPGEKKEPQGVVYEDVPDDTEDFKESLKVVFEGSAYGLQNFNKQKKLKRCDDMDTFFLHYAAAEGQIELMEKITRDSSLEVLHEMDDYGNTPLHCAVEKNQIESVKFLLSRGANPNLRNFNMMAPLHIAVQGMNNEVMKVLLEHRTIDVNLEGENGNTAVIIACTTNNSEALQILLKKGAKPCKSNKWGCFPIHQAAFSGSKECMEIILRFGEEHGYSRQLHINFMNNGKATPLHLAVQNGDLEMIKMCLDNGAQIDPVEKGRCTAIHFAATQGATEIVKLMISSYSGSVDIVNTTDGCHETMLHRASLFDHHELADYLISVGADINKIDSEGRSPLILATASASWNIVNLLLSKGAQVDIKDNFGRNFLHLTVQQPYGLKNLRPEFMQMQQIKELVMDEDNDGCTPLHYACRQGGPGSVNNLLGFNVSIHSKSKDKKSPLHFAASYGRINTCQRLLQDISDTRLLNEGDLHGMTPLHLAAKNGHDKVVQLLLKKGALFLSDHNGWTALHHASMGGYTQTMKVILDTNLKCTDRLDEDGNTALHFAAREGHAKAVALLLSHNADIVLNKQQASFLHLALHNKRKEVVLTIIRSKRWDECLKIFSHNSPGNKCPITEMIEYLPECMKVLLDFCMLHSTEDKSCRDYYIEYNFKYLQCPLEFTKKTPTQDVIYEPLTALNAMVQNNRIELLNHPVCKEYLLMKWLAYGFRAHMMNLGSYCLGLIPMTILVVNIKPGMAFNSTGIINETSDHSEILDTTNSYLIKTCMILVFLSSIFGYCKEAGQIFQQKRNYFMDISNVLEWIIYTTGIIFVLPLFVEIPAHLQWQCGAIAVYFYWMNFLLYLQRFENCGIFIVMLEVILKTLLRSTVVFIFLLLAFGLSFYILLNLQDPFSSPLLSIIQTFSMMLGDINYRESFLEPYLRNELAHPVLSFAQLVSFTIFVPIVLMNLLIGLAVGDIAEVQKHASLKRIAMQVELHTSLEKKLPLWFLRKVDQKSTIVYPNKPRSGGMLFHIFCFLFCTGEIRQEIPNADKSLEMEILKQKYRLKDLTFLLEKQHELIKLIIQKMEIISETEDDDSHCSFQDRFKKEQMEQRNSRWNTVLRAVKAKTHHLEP
How it was run: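 Whole-cell patch clamp, bath 150 mM NaCl, 10 mM HEPES, 1 mM EGTA, 3 mM MgCl2, pH 7.4 (sometimes 2 mM CaCl2, 1 mM MgCl2). Currents recorded continuously at −60 mV or by 400 ms ramps from −40 mV holding every 4 s; inward/outward currents taken at −80/80 mV, with controlled-temperature focal perfusion.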

[3] = 30 mg/kg PO one hour prior to formalin, solution in 8% DMSO and 92% Labrasol
[4] = 1 mg/kg PO, 25% Cremophor EL, and 66% water
[5] = 3 mg/kg PO, 25% Cremophor EL, and 66% water
[6] = 10 mg/kg PO, 25% Cremophor EL, and 66% water
[7] = 1 mg/kg PO one hour prior to formalin, solution in 4% DMSO, 5% Tween-80, 20% Cremophor EL, 71% water
[8] = 3 mg/kg PO one hour prior to formalin, solution in 4% DMSO, 5% Tween-80, 20% Cremophor EL, 71% water
[9] = 10 mg/kg PO one hour prior to formalin, solution in 4% DMSO, 5% Tween-80, 20% Cremophor EL, 71% water
[10] = 1 mg/kg PO, 20% Cremophor EL, and 71% water
[11] = 3 mg/kg PO, 20% Cremophor EL, and 71% water
[12] = 10 mg/kg PO, 20% Cremophor EL, and 71% water

| IC50 (human TRPA1) | SMILES | Duration (0-2 Minutes) Average [1, 7] | Duration (0-5 Minutes) Average [1, 7] | Duration (0-2 Minutes) Average [1, 8] | Duration (0-5 Minutes) Average [1, 8] | Duration (0-2 Minutes) Average [1, 9] | Duration (0-5 Minutes) Average [1, 9] | also measured |
| --- | --- | --- | --- | --- | --- | --- | --- | --- |
|  | CCC(=O)Cn1c(=O)c2c(ncn2[C@@H](C)C(=O)Nc2csc(-c3cnc(N4CC5CC5C4)nc3)n2)n(C)c1=O (stereo partly shown) [Compound 14] |  |  |  |  |  |  | Duration (0-2 Minutes) Average [1, 3]: 34.3 s and 39.6 s; Duration (0-5 Minutes) Average [1, 3]: 123.4 s and 160.6 s; Average PWL Post-Treatment [2, 4]: 194.8; PWL Change [2, 4]: 104.2 s; Average PWL Post-Treatment [2, 5]: 180.0; PWL Change [2, 5]: 87.6 s; Average PWL Post-Treatment [2, 6]: 237.4; PWL Change [2, 6]: 146.3 s; Average PWL Post-CFA ([2]; group 1 mg/kg PO, 25% Cremophor EL, and 66% water): 90.3; Average PWL Post-CFA ([2]; group 3 mg/kg PO, 25% Cremophor EL, and 66% water): 92.3; Average PWL Post-CFA ([2]; group 10 mg/kg PO, 25% Cremophor EL, and 66% water): 90.9 |
|  | CCC(=O)Cn1c(=O)c2c(ncn2[C@@H](C)C(=O)Nc2csc(-c3cnc(N4CCC[C@H]4C(F)(F)F)nc3)n2)n(C)c1=O [Compound 18, (S)-2-(3-methyl-2,6-dioxo-1-(2-oxobutyl)-2,3-dihydro-1H-purin-7(6H)-yl)-N-(2-(2-((S)-2-(trifluoromethyl)pyrrolidin-1-yl)pyrimidin-5-yl)thiazol-4-yl)propanamide] | 78.0 s | 183.3 s | 58.0 s | 157.1 s | 35.3 s | 181.6 s | Average PWL Post-Treatment [2, 10]: 246.8; PWL Change [2, 10]: 149.7 s; Average PWL Post-Treatment [2, 11]: 233.5; PWL Change [2, 11]: 136.4 s; Average PWL Post-Treatment [2, 12]: 256.1; PWL Change [2, 12]: 159.1 s; Average PWL Post-CFA ([2]; group 1 mg/kg PO, 20% Cremophor EL, and 71% water): 97.1; Average PWL Post-CFA ([2]; group 3 mg/kg PO, 20% Cremophor EL, and 71% water): 97.0; Average PWL Post-CFA ([2]; group 10 mg/kg PO, 20% Cremophor EL, and 71% water): 97.0 |
| 0.002 µM | Cc1nc(Cn2c(=O)c3c(ncn3[C@@H](C)C(=O)Nc3ccnc(-c4cnc(C)c(C(F)(F)F)c4)n3)n(C)c2=O)no1 [Compound 172, (S)-2-(3-methyl-1-((5-methyl-1,2,4-oxadiazol-3-yl)methyl)-2,6-dioxo-2,3-dihydro-1H-purin-7(6H)-yl)-N-(2-(6-methyl-5-(trifluoromethyl)pyridin-3-yl)pyrimidin-4-yl)propanamide] | 88.6 s | 151.0 s | 91.1 s | 149.0 s | 83.1 s | 151.6 s |  |
| 0.02 µM | Cc1nc(Cn2c(=O)c3c(ncn3CC(=O)Nc3csc(-c4cnc(C(F)(F)F)c(C)c4)n3)n(C)c2=O)no1 [Compound 253, 2-(3-methyl-1-((5-methyl-1,2,4-oxadiazol-3-yl)methyl)-2,6-dioxo-2,3-dihydro-1H-purin-7(6H)-yl)-N-(2-(5-methyl-6-(trifluoromethyl)pyridin-3-yl)thiazol-4-yl)acetamide] | 79.3 s | 126.4 s | 78.8 s | 119.6 s | 76.4 s | 116.0 s |  |
